pIC50: −log10 of the molar value.
What was measured:
Type in all cases: cell-based
MV4-11 = experiment: CellTiter-Blue cell viability, MV4-11; settings: for pIC50: Homo sapiens, MV4-11, AML cell line, 72 hours; for activity in AML cells: AML cells (MV4-11 and MOLM13); for potency relative to parent I-1 analogue: cell viability, Table 1
Procedure: (§1) The anti-cancer efficacy of exemplary compounds of the application were assessed in vitro against different cancer cell lines. Cell viability was examined following treatment at various concentrations of inhibitor (0.097656-50 μM) using a CellTiter-Blue® cell viability assay. 1×10^4 cells/well were plated in 96-well assay plates in culture medium. All cells were grown in DMEM, IMDM and RPMI-1640 supplemented with 10% fetal bovine serum (FBS). In some instances, FBS was removed for periods ranging from 16-24 hours, and re-introduced with test compound addition. After 24 hrs, test compounds and vehicle controls were added to appropriate wells such that the final volume was 100 μl in each well. The cells were cultured for the desired test exposure period (72 hours) at 37° C. and 5% CO2. The assay plates were removed from 3° C. incubator and 20 μl/well of CellTiter-Blue® Reagent was added. The plates were incubated using standard cell culture conditions for 1-4 hours. Afterwards, the plates were shaken for 10 seconds and florescence was recorded at 560/590 nm using a Cytation 3 spectrophotometer. IC50 values were determined using non-linear regression analysis with GraphPad Prism 6.0 (GraphPad Software Inc.).

MOLM13 = experiment: CellTiter-Blue cell viability, MOLM13; settings: Homo sapiens, MOLM-13; AML cell line, 72 hours
Procedure: as §1

[1] = tested on: healthy human lung cells (MRC9); experiment: CellTiter-Blue cell viability, MRC9; settings: non-cancerous, 72 hours
Procedure: as §1

[2] = tested on: primary human fibroblast cells (PHF); experiment: CellTiter-Blue cell viability, PHF; settings: non-cancerous, 72 hours
Procedure: as §1

pIC50 (MV4-11) | pIC50 (MOLM13) | SMILES | pIC50 [1] | pIC50 [2] | activity in AML cells (MV4-11) | potency relative to parent I-1 analogue (MV4-11)
5.84 | 5.07 | Nc1ccc(-c2ccccc2CN(C2CC2)S(=O)(=O)c2c(F)c(F)c(F)c(F)c2F)cc1 [Compound I-38, N-((4′-amino-[1,1′-biphenyl]-2-yl)methyl)-N-cyclopropyl-2,3,4,5,6-pentafluorobenzenesulfonamide] | 4.88 |  |  | 
5.94 | 5.87 | CS(=O)(=O)c1ccc(CN(C2CC2)S(=O)(=O)c2c(F)c(F)c(F)c(F)c2F)cc1 [Compound I-24, N-cyclopropyl-2,3,4,5,6-pentafluoro-N-(4(methylsulfonyl)benzyl)benzenesulfonamide] |  |  |  | 
6.23 | 5.03 | O=S(=O)(c1c(F)c(F)c(F)c(F)c1F)N(Cc1ccccc1)Cc1ccc(F)cc1 [Compound I-3] | 4.84 |  |  | 
6.36 | 5.51 | CN(Cc1ccc(F)cc1)S(=O)(=O)c1c(F)c(F)c(F)c(F)c1F [Compound I-58, 2,3,4,5,6-pentafluoro-N-(4-fluorobenzyl)-N-methylbenzenesulfonamide] |  |  |  | 
5.55 | 5.21 | CCOC(=O)C1(N(Cc2ccc(F)cn2)S(=O)(=O)c2c(F)c(F)c(F)c(F)c2F)CC1 [Compound I-18, Ethyl 1-((2,3,4,5,6-pentafluoro-N-((5-fluoropyridin-2-yl)methyl)phenyl)sulfonamido)cyclopropane-1-carboxylate] |  |  |  | 
5.33 | 5.35 | COc1cc(CN(C2CC2)S(=O)(=O)c2c(F)c(F)c(F)c(F)c2F)cc(OC)c1 [Compound I-22, N-cyclopropyl-N-(3,5-dimethoxybenzyl)-2,3,4,5,6-pentafluorobenzenesulfonamide] |  |  |  | 
6.10 | 6.20 | COc1ccc(CN(C2CC2)S(=O)(=O)c2c(F)c(F)c(F)c(F)c2F)cc1F [Compound I-17, N-cyclopropyl-2,3,4,5,6-pentafluoro-N-(3-fluoro-4-methoxybenzyl)benzenesulfonamide] | 4.79 |  |  | 
6.15 | 5.70 | O=S(=O)(c1c(F)c(F)c(F)c(F)c1F)N(Cc1ccc(F)cc1)C1CCCC1 [Compound I-5, N-cyclopentyl-2,3,4,5,6-pentafluoro-N-(4-fluorobenzyl)benzenesulfonamide] |  |  |  | 
4.51 |  | O=S(=O)(NC1(c2ccccc2)CC1)c1c(F)c(F)c(F)c(F)c1F [Comparative Example 7, 2,3,4,5,6-pentafluoro-N-(1-phenylcyclopropyl)benzenesulfonamide, reference compound] |  |  |  | 
5.85 | 5.82 | O=S(=O)(c1c(F)c(F)c(F)c(F)c1F)N(Cc1ccc(F)cc1)c1ccccc1 [Compound I-53, 2,3,4,5,6-pentafluoro-N-(4-fluorobenzyl)-N-phenylbenzenesulfonamide] |  |  |  | 
6.00 | 5.49 | O=C(OCc1ccccc1)c1ccc(CN(C2CC2)S(=O)(=O)c2c(F)c(F)c(F)c(F)c2F)cc1 [Compound I-41, Benzyl 4-(((N-cyclopropyl-2,3,4,5,6-pentafluorophenyl)sulfonamido)methyl)benzoate] |  |  |  | 
5.39 | 5.46 | O=S(=O)(c1c(F)c(F)c(F)c(F)c1F)N(Cc1ccncc1)Cc1ccc(F)cc1 [Compound I-52] |  |  |  | 
6.15 | 5.77 | CC(C)(C)C(=O)N(Cc1ccc(F)cc1)S(=O)(=O)c1c(F)c(F)c(F)c(F)c1F [Compound I-54, N-(4-fluorobenzyl)-N-((perfluorophenyl)sulfonyl)pivalamide] |  | 5.52 |  | 
5.32 | 5.47 | O=S(=O)(c1c(F)c(F)c(F)c(F)c1F)N(Cc1ccc(F)cc1)C1CCOC1 (stereo not shown) [Compound I-51, 2,3,4,5,6-pentafluoro-N-(4-fluorobenzyl)-N-(tetrahydrofuran-3-yl)benzenesulfonamide] |  |  |  | 
5.89 | 5.89 | O=S(=O)(c1c(F)c(F)c(F)c(F)c1F)N(Cc1ccccc1)C1CC1 [Compound I-6, N-benzyl-N-cyclopropyl-2,3,4,5,6-pentafluorobenzenesulfonamide] | 4.76 |  |  | 
< 4.90 | < 4.60 | O=S(=O)(c1c(F)c(F)cc(F)c1F)N(Cc1ccc(F)cc1)C1CC1 [Comparative Example 8, N-cyclopropyl-2,3,5,6-tetrafluoro-N-(4-fluorobenzyl)benzenesulfonamide, reference compound] |  |  | inactive | 
5.77 | 5.47 | O=S(=O)(c1c(F)c(F)c(F)c(F)c1F)N(Cc1cccc(F)c1)C1CC1 [Compound I-11, N-cyclopropyl-2,3,4,5,6-pentafluoro-N-(3-fluorobenzyl)benzenesulfonamide] | 5.05 |  |  | 

pIC50 (MV4-11) | pIC50 (MOLM13) | SMILES | pIC50 [1] | pIC50 [2] | activity in AML cells (MV4-11) | potency relative to parent I-1 analogue (MV4-11)
5.64 | 5.41 | O=S(=O)(c1c(F)c(F)c(F)c(F)c1F)N(Cc1ccccc1F)C1CCC1 [Compound I-45, N-cyclobutyl-2,3,4,5,6-pentafluoro-N-(2-fluorobenzyl)benzenesulfonamide] | 4.85 |  |  | 
6.02 | 5.10 | O=S(=O)(c1c(F)c(F)c(F)c(F)c1F)N(Cc1cccc(N2CCOCC2)c1)C1CC1 [Compound I-34, N-cyclopropyl-2,3,4,5,6-pentafluoro-N-(3-morpholinobenzyl)benzenesulfonamide] | 4.85 |  |  | 
5.45 | 5.41 | O=S(=O)(c1c(F)c(F)c(F)c(F)c1F)N(Cc1ccoc1)C1CC1 [Compound I-33] | 4.66 |  |  | 
5.77 | 5.40 | O=S(=O)(c1c(F)c(F)c(F)c(F)c1F)N(Cc1ccc(F)cc1F)C1CC1 [Compound I-35, N-cyclopropyl-N-(2,4-difluorobenzyl)-2,3,4,5,6-pentafluorobenzenesulfonamide] | 4.87 |  |  | 
5.68 | 5.29 | CC(=O)N(Cc1ccc(F)cc1)S(=O)(=O)c1c(F)c(F)c(F)c(F)c1F [Compound I-4, N-(4-fluorobenzyl)-N-((perfluorophenyl)sulfonyl)acetamide] | 4.60 |  |  | 
6.01 | 5.01 | O=S(=O)(c1c(F)c(F)c(F)c(F)c1F)N(C1CC1)C(c1ccc(F)cc1)C(F)(F)F (stereo not shown) [Compound I-10, N-cyclopropyl-2,3,4,5,6-pentafluoro-N-(2,2,2-trifluoro-1-(4-fluorophenyl)ethyl)benzenesulfonamide] |  |  |  | 
5.70 | 6.05 | COC(=O)c1ccc(CN(C2CC2)S(=O)(=O)c2c(F)c(F)c(F)c(F)c2F)cc1 [Compound I-27, Methyl 4-(((N-cyclopropyl-2,3,4,5,6-pentafluorophenyl)sulfonamido)methyl)benzoate] |  |  |  | 
5.71 | 5.40 | COc1cc(CN(C2CC2)S(=O)(=O)c2c(F)c(F)c(F)c(F)c2F)cc(OC)c1O [Compound I-29, N-cyclopropyl-2,3,4,5,6-pentafluoro-N-(4-hydroxy-3,5-dimethoxybenzyl)benzenesulfonamide] | 5.01 |  |  | 
5.82 | 5.28 | O=S(=O)(c1c(F)c(F)c(F)c(F)c1F)N(CC#Cc1ccccc1)C1CC1 [Compound I-31, N-cyclopropyl-2,3,4,5,6-pentafluoro-N-(3-phenylprop-2-yn-1-yl)benzenesulfonamide] | 4.81 |  |  | 
5.74 | 5.79 | O=S(=O)(c1c(F)c(F)c(F)c(F)c1F)N(Cc1ccncc1)C1CC1 [Compound I-9, N-cyclopropyl-2,3,4,5,6-pentafluoro-N-(pyridin-4-ylmethyl)benzenesulfonamide] |  |  |  | 
≤ 4.60 | ≤ 4.60 | O=S(=O)(c1ccccc1)N(Cc1ccc(F)cc1)C1CC1 [Comparative Example 2, N-cyclopropyl-N-(4-fluorobenzyl)benzenesulfonamide, reference compound] |  |  | inactive | 
5.82 | 5.89 | O=S(=O)(c1c(F)c(F)c(F)c(F)c1F)N(Cc1ccccn1)C1CC1 [Compound I-32, N-cyclopropyl-2,3,4,5,6-pentafluoro-N-(pyridin-2-ylmethyl)benzenesulfonamide] |  |  |  | 
5.36 | 4.75 | O=S(=O)(Nc1ccc(F)cc1)c1c(F)c(F)c(F)c(F)c1F [Comparative Example 5, 2,3,4,5,6-pentafluoro-N-(4-fluorophenyl)benzenesulfonamide, reference compound] |  |  |  | less potent
5.82 | 4.83 | Nc1cccc(-c2ccc(CN(C3CC3)S(=O)(=O)c3c(F)c(F)c(F)c(F)c3F)cc2)c1 [Compound I-39, N-((3′-amino-[1,1′-biphenyl]-4-yl)methyl)-N-cyclopropyl-2,3,4,5,6-pentafluorobenzenesulfonamide] | 4.80 |  |  | 
5.51 | 5.40 | O=S(=O)(NCc1ccc(F)cc1)c1c(F)c(F)c(F)c(F)c1F [Comparative Example 4, 2,3,4,5,6-pentafluoro-N-(4-fluorobenzyl)benzenesulfonamide, reference compound] | 4.77 |  |  | less potent
5.19 | 5.15 | O=S(=O)(NC1CC1)c1c(F)c(F)c(F)c(F)c1F [Comparative Example 6, N-cyclopropyl-2,3,4,5,6-pentafluorobenzenesulfonamide, reference compound] | 4.72 |  |  | 
